Test results: patent US4933356A, “Diflunisal potentiation of acetazolamide in the control of intraocular pressure” (Cornell Research Foundation, Inc., priority 1988, dated 1990)
Values joined by “and” are separate entries in the source; they are usually repeats but may differ in a detail not shown here. Equal entries are not always repeated. “Also recorded” adds a separate entry of the source. Where two headings read alike, the source gives them in different places.

Columns and labels:
[1] = system: glaucoma patients (intraocular pressure); test: Change in intraocular pressure (IOP) in glaucoma patients after one week of added diflunisal; type: in vivo, human; conditions: for Change in IOP following diflunisal treatment: Table I, mean ± SD; for effect of diflunisal on hypotensive action / IOP (in words): diflunisal added to stated drug
Description: (§3) All subjects taking part in this study participated voluntarily and an informed consent was obtained from each prior to their enrollment in the study. Forty-eight glaucoma patients (19 men and 29 women) on maximally tolerated antiglaucoma medications were assigned consecutively to the study. […] All eyes were treated with at least one preparation of topical antiglaucoma medications; pilocarpine (60 eyes), epinephrine or dipivefrin hydrochloride (27 eyes), timolol, levobunolol or betaxolol (80 eyes), and echothiophate iodide (17 eyes). Upon entering the study each patient received a full ophthalmologic examination which included a visual acuity determination, slitlamp examination, IOP measurement (baseline) with a Goldmann applanation tonometer, gonioscopy, and a dilated fundus examination. Patients were instructed to take oral diflunisal, 500 mg, twice daily for one week, while their regular antiglaucoma medications remained unchanged. A week later patients were examined again for visual acuity, slit lamp examination, IOP measurement and a history of side effects. Baseline and follow-up IOP was measured by the same investigator using the same tonometer at approximately the same time of day.

[2] = Plasma concentration of acetazolamide (total and free) in glaucoma patients, before/after diflunisal; type: in vivo, human; conditions: for concentration: 15 patients, read-out: total acetazolamide plasma level
Description: (§1) In 15 acetazolamide-treated patients 2-3 cc of venous blood was drawn before and again, at the same time of day, after one week on diflunisal for determination of total plasma concentration of acetazolamide. The blood sample underwent centrifugation at 5000 rpm for 5 minutes, and the plasma was separated and refrigerated until analysis. In addition, the plasma of seven of these 15 acetazolamide-treated patients was subjected to dialysis for determination of binding to albumin.
A blood sample was also taken from six acetazolamide-treated patients twice at a one week interval without diflunisal treatment.
(§2) Acetazolamide was analyzed by assay against carbonic anhydrase (Maren, T. H., J. Pharmacol. Exp. Therap.. 130:26 (1960)). Dialysis was carried out in a specially constructed cell consisting of two chambers of 1 ml capacity separated by Spectra/Por membrane, MW cutoff 6,000-8,000, Spectrum Med. Industries. One ml plasma, after analysis for total drug, was introduced to one compartment and 1 ml physiological saline to the other. The solutions were each mixed for 18 hours at 25* and then analyzed and calculated for free and total drug.

[3] = Plasma unbound acetazolamide in patients by dialysis, before/after diflunisal; type: in vitro ADME; conditions: human, seven patients
Description: as §1, §2

[4] = In vitro plasma binding of acetazolamide with graded concentrations of diflunisal (dialysis); type: in vitro ADME; conditions: human, 90 μM acetazolamide
Description: An in vitro study was performed for the effect of graded doses of diflunisal on the plasma binding of acetazolamide. Both drugs were added to plasma of a single non-glaucomatous individual and duplicate dialyses were done.
as §2
^a In Vitro plasma binding of 90 μM acetazolamide in a single
individual ([…]) following graded concentrations of diflunisal.

[5] = Plasma protein binding (background and discussion); type: in vitro ADME; conditions: read-out: plasma albumin binding of acetazolamide (converted)
glaucoma patients = test: Side effects in glaucoma patients after addition of diflunisal; conditions: acetazolamide plus diflunisal; severe nausea and extreme confusion
Description: as §3

[6] = system: normal volunteers (intraocular pressure); test: Change in intraocular pressure in normal volunteers (control group) given diflunisal alone; type: in vivo, human; conditions: normal controls
Description: Eight normal volunteers (52.3±16.4 years) on no medications participated in this study as a control group to study the ocular hypotensive effect of diflunisal itself and were given oral diflunisal, 500 mg, twice daily for one week. The examinations before and after diflunisal were similarly taken as glaucoma patients described above.

[7] = cited from earlier work
human plasma protein = conditions: cited from earlier work
[8] = system: prostaglandin synthesis (cyclooxygenase); conditions: at high doses; cited from earlier work
[9] = in vivo; cited from earlier work
[10] = system: plasma albumin / plasma protein; conditions: cited from earlier work
[11] = diflunisal 500 mg oral twice daily, one week, added to stated antiglaucoma medication

CC(=O)Nc1nnc(S(N)(=O)=O)s1 [Acetazolamide, 5-acetamido-1,3,4-thiadiazole-2-sulfonamide]
relationship between daily dosage of acetazolamide and IOP reduction ([1]; FIG. 1, after one week of diflunisal): no relationship between the daily dosage of acetazolamide and the IOP reduction | Change in IOP following diflunisal treatment [1, 11]: -3.8 ± 3.1 mm Hg | effect of diflunisal on hypotensive action / IOP (in words) [1]: significant decrease in IOP | concentration ([2]; after one week on diflunisal, P<0.015 vs baseline): 31.8 ± 16.1 µM | concentration ([2]; baseline before diflunisal): 19.1 ± 9.1 µM | increase in free plasma levels of acetazolamide ([2]; addition of diflunisal): 5.6 fold | increase in total plasma levels of acetazolamide ([2]; addition of diflunisal): ~50% | free (unbound) acetazolamide plasma concentration ([2]; after diflunisal): 5.6 ± 4.1 µM and 5.6 µM | free (unbound) acetazolamide plasma concentration ([2]; before diflunisal): 1.0 ± 0.6 µM and 1.0 µM | change in total acetazolamide plasma level over one week ([2]; six patients without additional diflunisal, P≥0.05): no significant change | fraction unbound at 18 h ([3]; after diflunisal): 0.162 ± 0.087 | fraction unbound at 18 h ([3]; before diflunisal): 0.043 ± 0.027 | fraction unbound at 18 h, 90 µM ([4]; diflunisal 0 μm): 0.07 | fraction unbound at 18 h, 90 µM ([4]; diflunisal 200 μm): 0.14 | fraction unbound at 18 h, 90 µM ([4]; diflunisal 400 μm): 0.22 | fraction unbound at 18 h, 90 µM ([4]; diflunisal 600 μm): 0.26 | fraction unbound ([5]; reduced by diflunisal): ~0.2 | fraction unbound ([5]; without diflunisal): 0.03 to 0.07 | patients dropped from study because of severe side effects (glaucoma patients): Two

O=C(O)c1cc(-c2ccc(F)cc2F)ccc1O [Diflunisal, 2-(hydroxy)-5-(2,4-difluorophenyl) benzoic acid]
Change in IOP following diflunisal treatment ([1]; diflunisal 500 mg twice daily, one week, topically treated only, n = 22 eyes): -0.7 ± 2.1 mm Hg | change in IOP after diflunisal (in words) ([1]; patients on topical medications alone, plus diflunisal): no significant change in IOP; also recorded: did not result in a significant reduction of IOP | Change in IOP following diflunisal treatment ([6]; Table I, diflunisal alone 500 mg twice daily, one week, n = 16 eyes, mean ± SD): 0.0 ± 1.0 mm Hg | change in IOP after diflunisal (in words) ([6]; diflunisal alone): no significant change in IOP; also recorded: did not result in a significant reduction of IOP | time to steady state plasma levels ([7]; 500 mg twice daily): 3 to 9 days | time to peak plasma levels ([7]; in vivo, po): 2 to 3 h | absorption from the intestines ([7]; in vivo): well absorbed from the intestines | excretion ([7]; in vivo): excreted mostly in the urine as a glucuronide | displacement of drugs from plasma protein (human plasma protein): can unbind partially bound compounds such as salicylic acid and phenprocoumin | displacement of drugs from plasma protein (human plasma protein; listed as diflunisal): displace the following compounds from human plasma protein: salicylate and phenprocoumin | inhibition of prostaglandin synthesis [8]: inhibits prostaglandin synthesis | most frequent adverse reactions [9]: nausea, gastrointestinal discomfort and diarrhea | tolerability versus aspirin [9]: generally better tolerated than aspirin

CC(=O)/N=c1/sc(S(N)(=O)=O)nn1C [Methazolamide]
Change in IOP following diflunisal treatment [1, 11]: -1.6 ± 1.5 mm Hg | mean reduction of IOP ([1]; added diflunisal 500 mg twice daily, one week, vs baseline): 1.6±1.5 mm Hg | effect of diflunisal on hypotensive action / IOP (in words) [1]: did not result in a significant reduction of IOP; also recorded: did not affect the hypotensive action | plasma protein binding [10]: 55%

O=C(O)c1ccccc1O [Salicylate, salicylic acid]
unbinding of acetazolamide from plasma proteins (human plasma protein): unbind acetazolamide from plasma proteins
